Values of other authors in paper PMC6724535 (Journal of molecular biology, 2019).

Tests used:
[1] = system: E. coli expressing TetX; conditions: E. coli expressing TetX vs wild-type E. coli
[2] = system: E. coli expressing TetK, TetA, TetB, and TetM
[3] = system: E. coli expressing AACs, ANTs, APHs and 16S rRNA ribosomal methyltransferases
[4] = system: D. discoideum

CN(C)[C@@H]1C(O)=C(C(N)=O)C(=O)[C@@]2(O)C(O)=C3C(=O)c4c(O)c(NC(=O)CN5CCCC5)cc(F)c4C[C@H]3C[C@@H]12 [eravacycline]
increase in minimal inhibitory concentration (MIC) relative to wild-type E. coli [1]: 64 fold
antibacterial activity [2]: maintained nearly full antibacterial activity

CN[C@@H]1[C@@H](O)[C@@H](O[C@@H]2[C@@H](O)[C@H](O[C@H]3OC(CNCCO)=CC[C@H]3N)[C@@H](N)C[C@H]2NC(=O)[C@@H](O)CCN)OC[C@]1(C)O [plazomicin]
activity against E. coli expressing aminoglycoside inactivating enzymes ([3]; majority of canonical AACs, ANTs, and APHs): maintain activity
antibacterial activity with ribosomal methyltransferases ([3]; some plasmid-encoded 16S rRNA ribosomal methyltransferases): completely abolish

jessenipeptin
amoebicidal activity IC50 [4]: 4 µg/mL
